In patent US12264134B2 (Merck Sharp & Dohme LLC, priority 2018, dated 2025) one finds IC50 data, which are given here for 16 compounds.

pIC50: −log10 of the molar value.

The pIC50 is the IC50 on a negative log10 scale, so that one unit is a factor of ten.

In this experiment the target is IDO1 (Homo sapiens, UniProt P14902). In words: IDO1 Cellular Assay in HeLa Cells Stimulated with IFNγ. It counts as cell-based. As to conditions: read-out: HeLa Cell Potency, IC50.
Sequence of IDO1 (P14902 whole entry): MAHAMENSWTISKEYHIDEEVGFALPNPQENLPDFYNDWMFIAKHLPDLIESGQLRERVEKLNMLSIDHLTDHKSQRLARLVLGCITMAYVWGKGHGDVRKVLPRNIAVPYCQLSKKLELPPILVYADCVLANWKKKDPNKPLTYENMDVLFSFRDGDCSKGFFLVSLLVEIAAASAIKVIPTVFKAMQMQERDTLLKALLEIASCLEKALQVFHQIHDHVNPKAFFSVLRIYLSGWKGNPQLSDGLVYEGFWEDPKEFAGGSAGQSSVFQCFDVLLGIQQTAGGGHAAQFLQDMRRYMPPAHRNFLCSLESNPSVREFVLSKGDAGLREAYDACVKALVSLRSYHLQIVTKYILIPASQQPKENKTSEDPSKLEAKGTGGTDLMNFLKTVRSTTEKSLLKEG
For the compound `Cc1cccc(N2CCN(C(=O)Cn3nc(C(=O)N4CC5(CNC5)C4)c4c3C[C@H]3C[C@@H]43)CC2)c1C` [Example 232, 2-[(3bR,4aR)-3-(2,6-diazaspiro[3.3]heptane-2-carbonyl)-3b,4,4a,5-tetrahydro-1H-cyclopropa[3,4]cyclopenta[1,2-c]pyrazol-1-yl]-1-[4-(2,3-dimethylphenyl)piperazin-1-yl]ethan-1-one], the pIC50 is 7.21. With `Cc1cccc(N2CCN(C(=O)Cn3nc(C(=O)N4CCC(C(F)F)C4)c4c3C[C@H]3C[C@@H]43)CC2)c1C` (stereo partly drawn) [Example 233, 2-{(3bR,4aR)-3-[3-(difluoromethyl)pyrrolidine-1-carbonyl]-3b,4,4a,5-tetrahydro-1H-cyclopropa[3,4]cyclopenta[1,2-c]pyrazol-1-yl}-1-[4-(2,3-dimethylphenyl)piperazin-1-yl]ethan-1-one], the pIC50 was 8.63.

Take `Cc1cccc(N2CCN(C(=O)Cn3nc(C(=O)N4CCC5NCC5C4)c4c3C[C@H]3C[C@@H]43)CC2)c1C` (stereo partly drawn) [Example 236, 2-[(3bR,4aR)-3-(3,7-diazaspiro[4.2.0]octane-3-carbonyl)-3b,4,4a,5-tetrahydro-1H-cyclopropa[3,4]cyclopenta[1,2-c]pyrazol-1-yl]-1-[4-(2,3-dimethylphenyl)piperazin-1-yl]ethan-1-one]: the pIC50 is 7.26. For the compound `Cc1cccc(N2CCN(C(=O)Cn3nc(C(=O)N4CC[C@H]5[C@@H](C4)NC(=O)N5C)c4c3C[C@H]3C[C@@H]43)CC2)c1C` [Example 237, (3aR,7aS)-5-[(3bR,4aR)-1-{2-[4-(2,3-dimethylphenyl)piperazin-1-yl]-2-oxoethyl}-3b,4,4a,5-tetrahydro-1H-cyclopropa[3,4]cyclopenta[1,2-c]pyrazole-3-carbonyl]-1-methyloctahydro-2H-imidazo[4,5-c]pyridin-2-one], the pIC50 is 7.10.

Consider `Cc1cccc(N2CCN(C(=O)Cn3nc(C(=O)N4CCC5NC(=O)OCC5C4)c4c3C[C@H]3C[C@@H]43)CC2)c1C` (stereo partly drawn) [Example 239, 6-[(3bR,4aR)-1-{2-[4-(2,3-dimethylphenyl)piperazin-1-yl]-2-oxoethyl}-3b,4,4a,5-tetahydro-1H-cyclopropa[3,4]cyclopenta[1,2-c]pyrazole-3-carbonyl]octahydro-2H-pyrido[4,3-d][1,3]oxazin-2-one], for which the pIC50 is 8.19. The figure for `Cc1cccc(N2CCN(C(=O)Cn3nc(C(=O)N4CCC5NC(=O)OCC5C4)c4c3C[C@H]3C[C@@H]43)CC2)c1C` (stereo partly drawn) [Example 240, 6-[(3bR,4aR)-1-{2-[4-(2,3-dimethylphenyl)piperazin-1-yl]-2-oxoethyl}-3b,4,4a,5-tetrahydro-1H-cyclopropa[3,4]cyclopenta[1,2-c]pyrazole-3-carbonyl]octahydro-2H-pyrido[4,3-d][1,3]oxazin-2-one] is 7.88; for `CN[C@H]1CCCN(C(=O)c2nn(CC(=O)N3CCN(c4cccc(C)c4C)CC3)c3c2[C@@H]2C[C@@H]2C3)C1` [Example 241, 1-[4-(2,3-dimethylphenyl)piperazin-1-yl]-2-{(3bR,4aR)-3-[(3S)-3-(methylamino)piperidine-1-carbonyl]-3b,4,4a,5-tetrahydro-1H-cyclopropa[3,4]cyclopenta[1,2-c]pyrazol-1-yl}ethan-1-one] it is 6.79; for `Cc1cccc(N2CCN(C(=O)Cn3nc(C(=O)N4CCC(NC(=O)NN)CC4)c4c3C[C@H]3C[C@@H]43)CC2)c1C` [Example 242, N-{1-[(3bR,4aR)-1-{2-[4-(2,3-dimethylphenyl)piperazin-1-yl]-2-oxoethyl}-3b,4,4a,5-tetrahydro-1H-cyclopropa[3,4]cyclopenta[1,2-c]pyrazole-3-carbonyl]piperidin-4-yl}hydrazinecarboxamide] it is 7.00. For the compound `Cc1cccc(N2CCN(C(=O)Cn3nc(C(=O)N4CC5(CCN(C)C5)C4)c4c3C[C@H]3C[C@@H]43)CC2)c1C` [Example 243, 1-[4-(2,3-dimethylphenyl)piperazin-1-yl]-2-[(3bR,4aR)-3-(6-methyl-2,6-diazaspiro[3.4]octane-2-carbonyl)-3b,4,4a,5-tetrahydro-1H-cyclopropa[3,4]cyclopenta[1,2-c]pyrazol-1-yl]ethan-1-one], the pIC50 is 6.80. Consider `Cc1cccc(N2CCN(C(=O)Cn3nc(C(=O)N4CCC5(CC4)CNC(=O)CO5)c4c3C[C@H]3C[C@@H]43)CC2)c1C` [Example 244, 9-[(3bR,4aR)-1-{2-[4-(2,3-dimethylphenyl)piperazin-1-yl]-2-oxoethyl}-3b,4,4a,5-tetrahydro-1H-cyclopropa[3,4]cyclopenta[1,2-c]pyrazole-3-carbonyl]-1-oxa-4,9-diazaspiro[5.5]undecan-3-one], for which the pIC50 is 8.32.

As to `Cc1cccc(N2CCN(C(=O)Cn3nc(C(=O)N4CCC(C)(O)CC4C)c4c3C[C@H]3C[C@@H]43)CC2)c1C` (stereo partly drawn) [Example 245, 1-[4-(2,3-dimethylphenyl)piperazin-1-yl]-2-[(3bR,4aR)-3-(4-hydroxy-2,4-dimethylpiperidine-1-carbonyl)-3b,4,4a,5-tetrahydro-1H-cyclopropa[3,4]cyclopenta[1,2-c]pyrazol-1-yl]ethan-1-one], the negative-log IC50 (pIC50) was 8.52. Turning to `Cc1cccc(N2CCN(C(=O)Cn3nc(C(=O)N4CCN5CCCC[C@@H]5C4)c4c3C[C@H]3C[C@@H]43)CC2)c1C` [Example 246, 1-[4-(2,3-dimethylphenyl)piperazin-1-yl]-2-{(3bR,4aR)-3-[(9aR)-octahydro-2H-pyrido[1,2-a]pyrazine-2-carbonyl]-3b,4,4a,5-tetrahydro-1H-cyclopropa[3,4]cyclopenta[1,2-c]pyrazol-1-yl}ethan-1-one], the pIC50 is 8.49.

Take `Cc1cccc(N2CCN(C(=O)Cn3nc(C(=O)N4CCC(C)(CO)CC4)c4c3C[C@H]3C[C@@H]43)CC2)c1C` [Example 248, 1-[4-(2,3-dimethylphenyl)piperazin-1-yl]-2-{(3aR,4aR)-3-[4-(hydroxymethyl)-4-methylpiperidine-1-carbonyl]-3b,4,4a,5-tetrahydro-1H-cyclopropa[3,4]cyclopenta[1,2-c]pyrazol-1-yl}ethan-1-one]: the pIC50 was 9.15. `Cc1cccc(N2CCN(C(=O)Cn3nc(C(=O)N4CCC(CO)CC4)c4c3C[C@H]3C[C@@H]43)CC2)c1C` [Example 249, 1-[4-(2,3-dimethylphenyl)piperazin-1-yl]-2-{(3bR,4aR)-3-[4-(hydroxymethyl)piperidine-1-carbonyl]-3b,4,4a,5-tetrahydro-1H-cyclopropa[3,4]cyclopenta[1,2-c]pyrazol-1-yl}ethan-1-one]: the pIC50 was 9.21. Turning to `Cc1cccc(N2CCN(C(=O)Cn3nc(C(=O)N4CCN(CC(F)(F)F)CC4)c4c3C[C@H]3C[C@@H]43)CC2)c1C` [Example 250, 1-[4-(2,3-dimethylphenyl)piperazin-1-yl]-2-{(3bR,4aR)-3-[4-(2,2,2-trifluoroethyl)piperazine-1-carbonyl]-3b,4,4a,5-tetrahydro-1H-cyclopropa[3,4]cyclopenta[1,2-c]pyrazol-1-yl}ethan-1-one], the pIC50 is 9.03. Under `Cc1cccc(N2CCN(C(=O)Cn3nc(C(=O)N4CC[C@H](CO)C4)c4c3C[C@H]3C[C@@H]43)CC2)c1C` [Example 251, 1-[4-(2,3-dimethylphenyl)piperazin-1-yl]-2-{(3bR,4aR)-3-[(3S)-3-(hydroxymethyl)pyrrolidine-1-carbonyl]-3b,4,4a,5-tetrahydro-1H-cyclopropa[3,4]cyclopenta[1,2-c]pyrazol-1-yl}ethan-1-one] stands 9.03.
